Assay results from PubChem BioAssay (NCI).
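96-well plates; 48 h exposure; 5 concentrations. Endpoints by linear interpolation between flanking doses. Not reached: highest tested concentration assigned. At the TGI there is no net growth.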

Columns and labels:
Experiment in all cases: NCI anticancer screen, dose series, 48 h
NCI-H460 lung = system: NCI-H460 lung
TK-10 renal = system: TK-10 renal
HCC-2998 colon = system: HCC-2998 colon
COLO 205 colon = system: COLO 205 colon
HOP-92 NSCLC = system: HOP-92 NSCLC
IGROV1 ovarian = system: IGROV1 ovarian
EKVX NSCLC = system: EKVX NSCLC
DU-145 prostate = system: DU-145 prostate
HCT-15 colon = system: HCT-15 colon
MDA-MB-435 = system: MDA-MB-435
T-47D breast = system: T-47D breast
NCI-H226 lung = system: NCI-H226 lung
OVCAR-3 ovarian = system: OVCAR-3 ovarian
M14 melanoma = system: M14 melanoma
MDA-MB-231 breast = system: MDA-MB-231 breast
SR leukemia = system: SR leukemia
NCI/ADR-RES ovarian = system: NCI/ADR-RES ovarian
CCRF-CEM leukemia = system: CCRF-CEM leukemia
HL-60(TB) leukemia = system: HL-60(TB) leukemia
UACC-62 melanoma = system: UACC-62 melanoma
NCI-H23 lung = system: NCI-H23 lung
HT29 colon = system: HT29 colon
SNB-19 CNS = system: SNB-19 CNS
SK-MEL-5 melanoma = system: SK-MEL-5 melanoma
A549 NSCLC = system: A549 NSCLC
SNB-75 CNS = system: SNB-75 CNS
786-0 renal = system: 786-0 renal
OVCAR-4 ovarian = system: OVCAR-4 ovarian
K-562 leukemia = system: K-562 leukemia
SK-MEL-28 melanoma = system: SK-MEL-28 melanoma
MALME-3M melanoma = system: MALME-3M melanoma
MCF7 breast = system: MCF7 breast
HCT-116 colon = system: HCT-116 colon
UO-31 renal = system: UO-31 renal
HOP-62 NSCLC = system: HOP-62 NSCLC
SK-OV-3 ovarian = system: SK-OV-3 ovarian
BT-549 breast = system: BT-549 breast
A498 renal = system: A498 renal
OVCAR-8 ovarian = system: OVCAR-8 ovarian
SN12C renal = system: SN12C renal
SW-620 colon = system: SW-620 colon
SF-295 CNS = system: SF-295 CNS
RPMI-8226 leukemia = system: RPMI-8226 leukemia
MDA-N = system: MDA-N
SF-268 CNS = system: SF-268 CNS
UACC-257 melanoma = system: UACC-257 melanoma
PC-3 prostate = system: PC-3 prostate
U251 CNS = system: U251 CNS
MOLT-4 leukemia = system: MOLT-4 leukemia
ACHN renal = system: ACHN renal
OVCAR-5 ovarian = system: OVCAR-5 ovarian
CAKI-1 renal = system: CAKI-1 renal
SF-539 CNS = system: SF-539 CNS
RXF 393 renal = system: RXF 393 renal
KM12 colon = system: KM12 colon
SK-MEL-2 melanoma = system: SK-MEL-2 melanoma
LOX IMVI melanoma = system: LOX IMVI melanoma
NCI-H522 lung = system: NCI-H522 lung
HS 578T breast = system: HS 578T breast

Measured: TGI

O=C(O)c1cnc2[nH]ccn2c1=O
not listed: CAKI-1 renal | SF-539 CNS | RXF 393 renal | KM12 colon | SK-MEL-2 melanoma | LOX IMVI melanoma | NCI-H522 lung | HS 578T breast
> 100 µM: all other assays above

CCN1CCN(c2nc3ccc([N+](=O)[O-])cc3nc2C(=O)c2ccccc2)CC1
8.27 µM: CCRF-CEM leukemia
30.5 µM: CAKI-1 renal | OVCAR-8 ovarian
31.9 µM: U251 CNS
32.3 µM: PC-3 prostate
61.9 µM: HL-60(TB) leukemia
34.2 µM: TK-10 renal | 786-0 renal
29.3 µM: SK-MEL-2 melanoma | ACHN renal
71.2 µM: SNB-19 CNS
36.7 µM: UACC-257 melanoma
16.9 µM: BT-549 breast
25.2 µM: UO-31 renal
29.7 µM: SF-539 CNS
31.8 µM: SR leukemia | KM12 colon
33.3 µM: NCI-H226 lung
30.9 µM: SN12C renal | RPMI-8226 leukemia
32.7 µM: HOP-92 NSCLC
29.2 µM: NCI/ADR-RES ovarian
32.8 µM: RXF 393 renal
34.4 µM: NCI-H23 lung
18.9 µM: IGROV1 ovarian
35.6 µM: HOP-62 NSCLC
25 µM: HCT-15 colon
34.8 µM: MCF7 breast
33.9 µM: MDA-N
31.2 µM: UACC-62 melanoma | HCT-116 colon
25.7 µM: M14 melanoma
28.7 µM: MDA-MB-231 breast
30.3 µM: SF-295 CNS
28.2 µM: MALME-3M melanoma
10.3 µM: NCI-H522 lung
73.2 µM: A498 renal
38 µM: SF-268 CNS
51.4 µM: NCI-H460 lung
30.2 µM: MDA-MB-435
30 µM: COLO 205 colon
28.6 µM: HCC-2998 colon
29.6 µM: EKVX NSCLC
41.7 µM: SK-OV-3 ovarian | SW-620 colon
> 100 µM: T-47D breast | K-562 leukemia | MOLT-4 leukemia
30.6 µM: OVCAR-3 ovarian
36.1 µM: OVCAR-5 ovarian
33.2 µM: DU-145 prostate
17.8 µM: LOX IMVI melanoma
33.7 µM: A549 NSCLC

N#CCCC1(CCC#N)CCCCCCCCC(CCC#N)(CCC#N)C(=O)C1=O
88.2 µM: NCI-H522 lung
not listed: IGROV1 ovarian | MDA-MB-231 breast | CCRF-CEM leukemia | SK-MEL-5 melanoma | UO-31 renal | BT-549 breast | A498 renal | RPMI-8226 leukemia | MOLT-4 leukemia | RXF 393 renal
> 100 µM: all other assays above

O=C1CCC(=O)N1n1c(Cc2ccc(Cl)cc2)n[nH]c1=O
not listed: SR leukemia | CCRF-CEM leukemia | SNB-75 CNS | HOP-62 NSCLC | RXF 393 renal
> 100 µM: all other assays above
